How the values were obtained:
Conditions in all cases: primary screen
[1] = tested on: ENR+CD organoids (ISC to Paneth cell differentiation); assay: Primary screen: basal (non-stimulated) lysozyme secretion LYZ.NS, 2.5-D 384-well ENR+CD organoid differentiation; format: cell-based, mouse
Source text: (§1) High-throughput screening.

[2] = tested on: ENR+CD organoids (ISC to Paneth cell differentiation); assay: Primary screen: CCh-stimulated lysozyme secretion LYZ.S, 2.5-D 384-well ENR+CD organoid differentiation; format: cell-based, mouse
Source text: as §1

ENR+CD organoids = assay: Primary screen: ATP (CellTiter-Glo 3D, CTG) cell number/viability, 2.5-D 384-well ENR+CD organoids;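 further: compounds given at plating and again on day 3 over a 6-day differentiation from ENR+CV stem-cell-enriched precursors, ATP measured on day 6, plate median as control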

Compound	Dose.FC.LYZ.NS (log2 fold change) ([1]; dose 0.08 uM)	Z.LYZ.NS (standard z score) ([1]; dose 0.08 uM)	Dose.FC.LYZ.NS (log2 fold change) ([1]; dose 0.40 uM)	Z.LYZ.NS (standard z score) ([1]; dose 0.40 uM)	Dose.FC.LYZ.NS (log2 fold change) ([1]; dose 2.00 uM)	Z.LYZ.NS (standard z score) ([1]; dose 2.00 uM)	Dose.FC.LYZ.NS (log2 fold change) ([1]; dose 10.00 uM)	Z.LYZ.NS (standard z score) ([1]; dose 10.00 uM)	Dose.FC.LYZ.S (log2 fold change) ([2]; dose 0.08 uM)	Dose.FC.LYZ.S (log2 fold change) ([2]; dose 0.40 uM)	Dose.FC.LYZ.S (log2 fold change) ([2]; dose 2.00 uM)	Dose.FC.LYZ.S (log2 fold change) ([2]; dose 10.00 uM)	Dose.FC.CTG (log2 fold change) (ENR+CD organoids; dose 0.08 uM)	Dose.FC.CTG (log2 fold change) (ENR+CD organoids; dose 0.40 uM)	Dose.FC.CTG (log2 fold change) (ENR+CD organoids; dose 2.00 uM)	Dose.FC.CTG (log2 fold change) (ENR+CD organoids; dose 10.00 uM)
N#Cc1ccc(C(c2ccc(C#N)cc2)n2cncn2)cc1 [Letrozole]	0.065	0.570	0.128	1.115	0.009	0.082	−0.008	−0.068	0.040	0.150	0.006	0.006	−0.013	0.101	0.099	0.171
CCN1CCC[C@H]1CNC(=O)c1cc(S(N)(=O)=O)ccc1OC [Levosulpiride]	0.013	0.114	0.024	0.205	0.051	0.441	−0.028	−0.240	−0.017	0.128	0.124	−0.026	−0.043	−0.006	0.031	0.090
CCN(CC)CC(=O)Nc1c(C)cccc1C [Lidocaine]	0.106	0.927	0.017	0.144	0.001	0.008	0.019	0.167	0.083	0.026	−0.038	−0.009	−0.079	−0.153	0.034	−0.256
CC#CCn1c(N2CCC[C@@H](N)C2)nc2c1c(=O)n(Cc1nc(C)c3ccccc3n1)c(=O)n2C [Linagliptin]	0.208	1.809	0.055	0.478	0.021	0.182	0.080	0.695	0.140	0.047	−0.032	0.050	0.163	0.209	0.023	−0.011
Nc1nc(OCc2cc(Br)cs2)c2[nH]cnc2n1 [Lomeguatrib]	−0.050	−0.437	−0.019	−0.161	−0.022	−0.193	−0.104	−0.908	−0.082	−0.022	−0.055	−0.138	−0.426	−0.309	0.075	−0.080
CCOC(=O)N1CCC(=C2c3ccc(Cl)cc3CCc3cccnc32)CC1 [Loratadine]	0.011	0.093	−0.001	−0.005	−0.108	−0.938	−0.101	−0.881	−0.076	0.011	−0.148	−0.148	−0.292	0.145	−0.204	−0.120

From US20220323406A1, “METHODS AND COMPOSITIONS FOR DIFFERENTIATING STEM CELLS” (Massachusetts Institute of Technology, priority 2019, published 2022)
